Results as given in publication PMC6245549 (Journal of medicinal chemistry, 2018).

Tests used:
kinases = details: 100 nM; no reference given; cited from earlier work
[1] = test system: MSK1 phosphorylation at T581; assay: Phosphorylation state of MSK1; assay type: cell-based
IL-8 [2] = assay: IL-8 ELISA; assay type: cell-based; details: Homo sapiens, read-out: Inhibition of IL-8 cytokine production
BRD4(1) [3] = target: T1, BRD4(1) (Homo sapiens, UniProt O60885); assay: Protein-observed fluorine NMR; assay type: binding
BRD4 D1 = BRD4 D1 (Homo sapiens, UniProt O60885); assay: ALPHAScreen, BRD4 D1
BRD4(1) [4] = target: T1, BRD4(1); assay: Isothermal-titration calorimetry; assay type: binding
c-Myc = assay: Western blot of c-Myc levels in MM.1S cells; assay type: cell-based; details: 6 h, concentrations approaching BRD4(1) Kd
A549 cells = assay: Cytotoxicity toward A549 cells; assay type: cell-based
BPTF = BPTF (Homo sapiens, UniProt Q12830); assay: Protein-observed fluorine NMR; assay type: binding
p38α [5] = target: T2, p38α (Homo sapiens, UniProt Q16539); assay: DiscoverX kinase-selectivity profiling, p38α; assay type: binding; details: 1 μM, DiscoverX platform
T2 sequence (Q16539 whole entry): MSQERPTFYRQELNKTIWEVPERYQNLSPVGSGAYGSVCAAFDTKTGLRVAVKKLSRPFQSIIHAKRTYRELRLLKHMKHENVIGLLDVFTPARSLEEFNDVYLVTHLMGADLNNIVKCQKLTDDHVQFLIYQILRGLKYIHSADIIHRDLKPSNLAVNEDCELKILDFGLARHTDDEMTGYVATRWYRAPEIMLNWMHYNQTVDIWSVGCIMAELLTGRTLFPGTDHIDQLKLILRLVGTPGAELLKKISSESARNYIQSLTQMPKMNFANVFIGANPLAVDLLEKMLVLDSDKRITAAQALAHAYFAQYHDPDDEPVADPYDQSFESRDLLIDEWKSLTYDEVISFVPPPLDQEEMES

p38α [6] = target: T2, p38α; assay: Cellular thermal-shift assay; assay type: cell-based; details: A549 cells, isothermal denaturation, dose-dependent
BRDT(1) = BRDT(1) (Homo sapiens, UniProt Q58F21); assay: Protein-observed fluorine NMR; assay type: binding; details: 50 μM 19F-labeled protein, W50
BET D2s = assay: DiscoverX bromodomain-selectivity profiling, BET D2s; assay type: binding, human; details: 10 μM
p38β = p38β (Homo sapiens, UniProt Q15759); assay: DiscoverX kinase-selectivity profiling, p38β; assay type: binding; details: 1 μM, DiscoverX platform
p38β, sequence (Q15759 whole entry): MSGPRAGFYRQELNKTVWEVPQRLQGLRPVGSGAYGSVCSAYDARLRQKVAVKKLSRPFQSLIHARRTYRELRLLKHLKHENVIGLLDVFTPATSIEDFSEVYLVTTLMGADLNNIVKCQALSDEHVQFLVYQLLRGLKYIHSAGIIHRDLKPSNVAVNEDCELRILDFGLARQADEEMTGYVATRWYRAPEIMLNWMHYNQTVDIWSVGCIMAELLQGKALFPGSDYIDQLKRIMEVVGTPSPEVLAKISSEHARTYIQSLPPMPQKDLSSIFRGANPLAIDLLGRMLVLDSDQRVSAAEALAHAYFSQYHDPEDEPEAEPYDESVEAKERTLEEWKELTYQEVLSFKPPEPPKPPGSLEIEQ

[7] = test system: yeast GCN5-like malarial protein (pfGCN5); assay: Protein-observed fluorine NMR; assay type: binding
IL-8 [8] = details: 20 μM; cited from earlier work
BRD4(1) [9] = target: T1, BRD4(1); assay: Fluorescence anisotropy, BRD4
BRD4(2) = BRD4(2) (Homo sapiens, UniProt O60885); assay: Fluorescence anisotropy, BRD4
A549-NF-κB-luc cells = assay: NF-κB luciferase reporter assay

SMILES: C[S+]([O-])c1ccc(-c2nc(-c3ccc(F)cc3)c(-c3ccncc3)[nH]2)cc1 (centres unmarked) [SB203580]
- Kinase selectivity score (kinases): 0.024

SMILES: Cc1sc2c(c1C)C(c1ccc(Cl)cc1)=N[C@@H](CC(=O)OC(C)(C)C)c1nnc(C)n1-2 [(+)-JQ1, reference compound]
- MSK1 phosphorylation at T581, in words [1]: not observed
- inhibition at 1 µM (IL-8 [2]): 63%

SMILES: Cc1cc(C)cc(Nc2nccc(-c3c(-c4ccc(F)cc4)nnn3C3CCNCC3)n2)c1 [VII, N-(3,5-Dimethylphenyl)-4-(4-(4-fluorophenyl)-1-(piperidin-4-yl)-1H-1,2,3-triazol-5-yl)pyrimidin-2-amine]
- Binding to BRD4(1) by PrOF NMR, in words (BRD4(1) [3]): bound BRD4(1) in a manner similar to that of compound V

SMILES: Cc1cc(C)cc(Nc2nccc(-c3c(C)nnn3C3CCNCC3)n2)c1 [IX, N-(3,5-Dimethylphenyl)-4-(4-methyl-1-(piperidin-4-yl)-1H-1,2,3-triazol-5-yl)pyrimidin-2-amine]
- Enhancement of binding to BRD4(1) relative to VII (BRD4 D1): 20 fold

SMILES: Cc1ccc(Nc2nccc(-c3c(-c4ccc(F)cc4)ncn3C3CCNCC3)n2)cc1C [Compound IV, N-(3,4-Dimethylphenyl)-4-(4-(4-fluorophenyl)-1-(piperidin-4-yl)-1H-imidazol-5-yl)pyrimidin-2-amine]
- Entropy of binding in ITC (BRD4(1) [4]): 5.0 cal/mol/°C
- Expression of c-Myc oncoprotein, in words (c-Myc): inhibited expression
- MSK1 phosphorylation at T581, in words [1]: decrease in levels of MSK1 phosphorylation
- Concentration up to which cytotoxicity toward A549 cells is minimal (A549 cells): ≤ 25 µM

SMILES: Cc1cc(C)cc(Nc2nccc(-c3c(-c4ccc(F)cc4)ncn3C3CCNCC3)n2)c1 [Compound V, N-(3,5-Dimethylphenyl)-4-(4-(4-fluorophenyl)-1-(piperidin-4-yl)-1H-imidazol-5-yl)pyrimidin-2-amine]
- Binding to BPTF by PrOF NMR, in words (BPTF): did not detect binding
- Inhibitory activity against p38α, in words (p38α [5]): high inhibitory activity
- Concentration above which p38α is stabilized (CETSA) (p38α [6]): > 1 nM
- Expression of c-Myc oncoprotein, in words (c-Myc): inhibited expression
- Small molecule needed to reach fully bound state of WPF-shelf resonance, BRDT(1) (BRDT(1)): approximately 1 equiv.
- Inhibition of BET D2s, DiscoverX (BET D2s): 7−27%
- Inhibitory activity against p38β, in words (p38β): high inhibitory activity
- MSK1 phosphorylation at T581, in words [1]: decrease in levels of MSK1 phosphorylation
- Binding to GCN5-like malarial protein by PrOF NMR, in words [7]: did not detect binding
- Concentration up to which cytotoxicity toward A549 cells is minimal (A549 cells): ≤ 10 µM

SMILES: C=C1C(=O)O[C@H]2[C@H]1CC/C(C)=C/CC[C@@]1(C)O[C@@H]21 [parthenolide]
- IL-8 production, in words (IL-8 [8]): decreased IL-8 production to baseline

SMILES: Fc1ccc(-c2ncn(C3CCNCC3)c2-c2ccnc(Oc3cc(F)cc(F)c3)n2)cc1 [Compound VI, 2-(3,5-Difluorophenoxy)-4-(4-(4-fluorophenyl)-1-(piperidin-4-yl)-1H-imidazol-5-yl)pyrimidine]
- Binding to BRD4(1), in words (BRD4(1) [9]): only bound weakly
- Binding to BRD4(2) / displacement of BI-BODIPY, in words (BRD4(2)): only bound weakly

SMILES: NC(=O)c1ccc(N(C(N)=O)c2c(F)cccc2F)nc1-c1ccc(F)cc1F [VX-702]
- Inhibition in NF-κB reporter assay, in words (A549-NF-κB-luc cells): limited inhibitory effects
